# Patent publication US8796289B2 (AbbVie Inc., priority 2011, dated 2014)
# Biological target: GST-tagged-Wee1 kinase (Homo sapiens, UniProt P30291)
# Assay: Wee1 time-resolved fluorescence equilibrium binding assay (displacement of Oregon Green-labeled ATP-competitive kinase probe)
# Procedure: Wee1 kinase was assayed using a time-resolved fluorescence equilibrium binding assay monitoring displacement of a rapidly reversible Oregon Green-labeled ATP-competitive kinase probe (N-(2-(2-(2-(4-(4-(5-chloro-4-(2-(1-hydroxycyclobutyl)thiazol-5-yl)-1H-pyrrolo[2,3-b]pyridin-2-yl)phenyl)piperazin-1-yl)ethoxy)ethoxy)ethyl)-2′,7′-difluoro-3′,6′-dihydroxy-3-oxo-3H-spiro[isobenzofuran-1,9′-xanthene]-5-carboxamide) by competitive Wee1 inhibitors.
# Chain of GST-tagged-Wee1 kinase (P30291 whole entry): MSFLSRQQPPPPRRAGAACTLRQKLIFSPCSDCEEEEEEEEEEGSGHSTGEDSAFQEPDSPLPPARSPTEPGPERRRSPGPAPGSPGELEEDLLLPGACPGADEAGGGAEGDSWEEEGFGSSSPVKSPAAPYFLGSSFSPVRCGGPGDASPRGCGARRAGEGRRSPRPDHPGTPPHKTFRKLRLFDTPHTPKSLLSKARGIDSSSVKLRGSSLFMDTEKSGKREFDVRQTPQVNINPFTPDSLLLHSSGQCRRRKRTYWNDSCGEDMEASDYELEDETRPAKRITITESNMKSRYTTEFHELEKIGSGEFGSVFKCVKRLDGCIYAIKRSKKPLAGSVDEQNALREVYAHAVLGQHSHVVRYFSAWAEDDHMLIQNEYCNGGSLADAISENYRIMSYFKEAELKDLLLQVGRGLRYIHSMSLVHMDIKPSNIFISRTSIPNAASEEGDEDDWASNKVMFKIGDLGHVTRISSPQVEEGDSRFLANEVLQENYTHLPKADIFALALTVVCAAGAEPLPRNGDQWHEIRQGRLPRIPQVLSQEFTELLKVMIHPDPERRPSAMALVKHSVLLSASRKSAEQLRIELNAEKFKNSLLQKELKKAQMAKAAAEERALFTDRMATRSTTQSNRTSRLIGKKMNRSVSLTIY
row,SMILES,Ki
1,"Cc1nn(-c2c(Cl)cccc2Cl)c(=O)c2cnc(Nc3cccc(N4CCN(C5CCC5)CC4)c3)nc12 [Example 508, 2-{[3-(4-cyclobutylpiperazin-1-yl)phenyl]amino}-6-(2,6-dichlorophenyl)-8-methylpyrimido[4,5-d]pyridazin-5(6H)-one]",2 nM
2,"Cc1nn(-c2c(Cl)cccc2Cl)c(=O)c2cnc(Nc3cccc(N4CCN(C5CCOCC5)CC4)c3)nc12 [Example 509, 6-(2,6-dichlorophenyl)-8-methyl-2-({3-[4-(tetrahydro-2H-pyran-4-yl)piperazin-1-yl]phenyl}amino)pyrimido[4,5-d]pyridazin-5(6H)-one]",1.2 nM
3,"Cc1nn(-c2c(Cl)cccc2Cl)c(=O)c2cnc(Nc3cccc(N4CCN(CCCO)CC4)c3)nc12 [Example 510, 6-(2,6-dichlorophenyl)-2-({3-[4-(3-hydroxypropyl)piperazin-1-yl]phenyl}amino)-8-methylpyrimido[4,5-d]pyridazin-5(6H)-one]",1.1 nM
4,"Cc1nn(-c2c(Cl)cccc2Cl)c(=O)c2cnc(Nc3cccc(N4CCN(C)CC4)c3)nc12 [Example 511, 6-(2,6-dichlorophenyl)-8-methyl-2-{[3-(4-methylpiperazin-1-yl)phenyl]amino}pyrimido[4,5-d]pyridazin-5(6H)-one]",0.46 nM
5,"Cc1nn(-c2c(Cl)cccc2Cl)c(=O)c2cnc(Nc3cccc(N4CCN(C5COC5)CC4)c3)nc12 [Example 512, 6-(2,6-dichlorophenyl)-8-methyl-2-({3-[4-(oxetan-3-yl)piperazin-1-yl]phenyl}amino)pyrimido[4,5-d]pyridazin-5(6H)-one]",1.4 nM
6,"Cc1nn(-c2c(Cl)cccc2Cl)c(=O)c2cnc(Nc3cccc(NCCN4CCOCC4)c3)nc12 [Example 513, 6-(2,6-dichlorophenyl)-8-methyl-2-[(3-{[2-(morpholin-4-yl)ethyl]amino}phenyl)amino]pyrimido[4,5-d]pyridazin-5(6H)-one]",1.1 nM
7,"Cc1nn(-c2c(Cl)cccc2Cl)c(=O)c2cnc(Nc3cccc(N4CCN(CCCN(C)C)CC4)c3)nc12 [Example 515, 6-(2,6-dichlorophenyl)-2-[(3-{4-[3-(dimethylamino)propyl]piperazin-1-yl}phenyl)amino]-8-methylpyrimido[4,5-d]pyridazin-5(6H)-one]",0.19 nM
8,"Cc1nn(-c2c(Cl)cccc2Cl)c(=O)c2cnc(Nc3cccc(OC4CCN(C)CC4)c3)nc12 [Example 516, 6-(2,6-dichlorophenyl)-8-methyl-2-({3-[(1-methylpiperidin-4-yl)oxy]phenyl}amino)pyrimido[4,5-d]pyridazin-5(6H)-one]",0.36 nM
9,"Cc1nn(-c2c(Cl)cccc2Cl)c(=O)c2cnc(Nc3ccc(N4CCN(CCCN(C)C)CC4)cc3)nc12 [Example 517, 6-(2,6-dichlorophenyl)-2-[(4-{4-[3-(dimethylamino)propyl]piperazin-1-yl}phenyl)amino]-8-methylpyrimido[4,5-d]pyridazin-5(6H)-one]",0.24 nM
10,"Cc1nn(-c2ccccc2Cl)c(=O)c2cnc(Nc3ccc(N4CCN(CCCN(C)C)CC4)cc3)nc12 [Example 518, 6-(2-chlorophenyl)-2-[(4-{4-[3-(dimethylamino)propyl]piperazin-1-yl}phenyl)amino]-8-methylpyrimido[4,5-d]pyridazin-5(6H)-one]",0.7 nM
11,"Cc1nn(-c2c(Cl)cccc2Cl)c(=O)c2cnc(Nc3cccc(C(=O)N4CCC(N(C)C)CC4)c3)nc12 [Example 519, 6-(2,6-dichlorophenyl)-2-[(3-{[4-(dimethylamino)piperidin-1-yl]carbonyl}phenyl)amino]-8-methylpyrimido[4,5-d]pyridazin-5(6H)-one]",0.75 nM
12,"Cc1nn(-c2c(Cl)cccc2Cl)c(=O)c2cnc(Nc3cccc(C(=O)NC4CCC(N(C)C)CC4)c3)nc12 (stereo not drawn) [Example 520, 3-{[6-(2,6-dichlorophenyl)-8-methyl-5-oxo-5,6-dihydropyrimido[4,5-d]pyridazin-2-yl]amino}-N-[4-(dimethylamino)cyclohexyl]benzamide]",0.45 nM
13,"Cc1nn(-c2c(Cl)cccc2Cl)c(=O)c2cnc(Nc3cccc(NC4CCN(C)CC4)c3)nc12 [Example 522, 6-(2,6-dichlorophenyl)-8-methyl-2-({3-[(1-methylpiperidin-4-yl)amino]phenyl}amino)pyrimido[4,5-d]pyridazin-5(6H)-one]",0.13 nM
14,"Cc1nn(-c2c(Cl)cccc2Cl)c(=O)c2cnc(Nc3cccc(C(=O)NC4CCN(C)CC4)c3)nc12 [Example 523, 3-{[6-(2,6-dichlorophenyl)-8-methyl-5-oxo-5,6-dihydropyrimido[4,5-d]pyridazin-2-yl]amino}-N-(1-methylpiperidin-4-yl)benzamide]",0.5 nM
15,"Cc1cccc(Cl)c1-n1nc(C)c2nc(Nc3ccc(NC4CCNCC4)cc3)ncc2c1=O [Example 524, 6-(2-chloro-6-methylphenyl)-8-methyl-2-{[4-(piperidin-4-ylamino)phenyl]amino}pyrimido[4,5-d]pyridazin-5(6H)-one]",0.3 nM
16,"Cc1nn(-c2c(Cl)cccc2Cl)c(=O)c2cnc(Nc3ccc(NC4CCNCC4)cc3)nc12 [Example 525, 6-(2,6-dichlorophenyl)-8-methyl-2-{[4-(piperidin-4-ylamino)phenyl]amino}pyrimido[4,5-d]pyridazin-5(6H)-one]",0.2 nM
17,"Cc1nn(-c2ccccc2Cl)c(=O)c2cnc(Nc3ccc(NC4CCNCC4)cc3)nc12 [Example 526, 6-(2-chlorophenyl)-8-methyl-2-{[4-(piperidin-4-ylamino)phenyl]amino}pyrimido[4,5-d]pyridazin-5(6H)-one]",0.48 nM
18,"Cc1nn(-c2c(Cl)cccc2Cl)c(=O)c2cnc(Nc3cccc(C(=O)N4CCN(CCO)CC4)c3)nc12 [Example 527, 6-(2,6-dichlorophenyl)-2-[(3-{[4-(2-hydroxyethyl)piperazin-1-yl]carbonyl}phenyl)amino]-8-methylpyrimido[4,5-d]pyridazin-5(6H)-one]",2.8 nM
19,"Cc1nn(-c2c(Cl)cccc2Cl)c(=O)c2cnc(Nc3cccc(C(=O)N4CCN(C)CC4)c3)nc12 [Example 528, 6-(2,6-dichlorophenyl)-8-methyl-2-({3-[(4-methylpiperazin-1-yl)carbonyl]phenyl}amino)pyrimido[4,5-d]pyridazin-5(6H)-one]",2.4 nM
20,"Cc1nn(-c2c(Cl)cccc2Cl)c(=O)c2cnc(Nc3cccc(C(=O)N4CCS(=O)(=O)CC4)c3)nc12 [Example 529, 6-(2,6-dichlorophenyl)-2-({3-[(1,1-dioxidothiomorpholin-4-yl)carbonyl]phenyl}amino)-8-methylpyrimido[4,5-d]pyridazin-5(6H)-one]",9.4 nM
21,"Cc1nn(-c2c(Cl)cccc2Cl)c(=O)c2cnc(Nc3cccc(C(=O)NC4CCNCC4)c3)nc12 [Example 530, 3-{[6-(2,6-dichlorophenyl)-8-methyl-5-oxo-5,6-dihydropyrimido[4,5-d]pyridazin-2-yl]amino}-N-(piperidin-4-yl)benzamide]",0.3 nM
